In ChEMBL document CHEMBL3507680, “University of Dundee, Gates Library screen for HepG2 cell viability”:

Test: Human HepG2 cell viability assay in 384 well format
Format: toxicity, cell-based
Parameters: dose 125 nL, time 70.5 hour; concentration not given beside the values
Settings: HepG2 cells, read-out: Inhibition

| Compound | cytotoxicity at 70.5 h [%] |
| --- | --- |
| CC(C)c1noc(CN2CCN(CCO)CC2)n1 | 2.45 |
| COCc1ccccc1CNCc1c(C(C)C)nn(C)c1N(C)C | -0.306 |
| CCOCCN1CCN(Cc2nc(CC(C)C)no2)CC1 | 1.47 |
| COc1cc(CNCCn2cc(C)cn2)cc2c1OCCO2 | 1.39 |
| COc1ncccc1C(=O)N1CCCC(n2ccnc2)C1 (stereo not given) | -1.13 |
| Cc1cc(C)n(CC2CN(Cc3cnc(C)s3)CCO2)n1 (stereo not given) | 16.8 |
| CCc1noc(CN2CCN(CCO)CC2)n1 | -1.62 |
| O=C(c1cccnc1N1CCCCC1)N1CCCC(n2ccnc2)C1 (stereo not given) | 1.48 |
| Cc1ccc(NC2CCN(C(=O)c3c(C)nn(C)c3Cl)CC2)nn1 | -2.32 |
| Cc1ccc(NC2CCN(C(=O)c3c(C)oc(C)c3C)CC2)nn1 | -10.8 |
| CCc1nc(CC(=O)N2CCn3c(CC)nnc3C2)cs1 | -2.3 |
| COCCNC(=O)Nc1ccc(-n2cncn2)c(C(F)(F)F)c1 | -3.51 |
| COc1ccc(C(CNC(=O)Nc2cc(C)nn2C)N(C)C)cc1 (stereo not given) | -5.49 |
| CCCNC(=O)CCOc1cccc(F)c1 | -3.12 |
| Cn1cc(Cl)cc1C(=O)N1CCCN(Cc2ccccc2)CC1 | -8.08 |
| O=C(NCCCNc1ccc(C(F)(F)F)cn1)c1ccc2c(c1)OCO2 | -9.51 |
| CCn1cc(CN2CCCN(C(=O)c3ccccc3C)CC2)cn1 | -2.18 |
| Cc1nn(C)c(Cl)c1C1CCCN1C(=O)c1ccnc(N(C)C)c1 (stereo not given) | -2.23 |
| Cc1nc(CN(C)C2CCN(CCc3ccc4c(c3)CCO4)C2)no1 (stereo not given) | 1.48 |
| Cc1nc(CN(C)C2CCN(Cc3cccc(F)c3)C2)no1 (stereo not given) | 1.26 |
| CCc1noc(CNC2CCCN(Cc3noc(C4CC4)n3)C2)n1 (stereo not given) | -5.98 |
| CNc1cc2c(nn1)CCN(C(=O)c1coc(Br)c1)C2 | 17.6 |

| Compound | cytotoxicity at 70.5 h [%] |
| --- | --- |
| CCc1noc(C)c1C(=O)N1CCCN(Cc2cscn2)CC1 | -10.2 |
| CCn1cc(CN2CCCN(C(=O)c3ccccc3OC)CC2)cn1 | -15.6 |
| CCn1cc(CN2CCCN(C(=O)c3ccc(C)o3)CC2)cn1 | 20.7 |
| O=C(NCCC(=O)N1CCCc2ccccc21)c1ccc(F)cc1F | -14.2 |
| Cc1nc(CN(C)C2CCN(Cc3cccc4c3OCCO4)C2)no1 (stereo not given) | 28.1 |
| COc1c(CNCC(O)c2cccc(F)c2)c(C)nn1C (stereo not given) | -9.63 |
| CC(C)C(=O)NCc1ccc(N(C)C)cc1 | -4.78 |
| CN(C)c1cc(CNC(=O)c2ccc(O)nc2)ccn1 | 14.5 |
| Cn1cnnc1C1CCCN(C(=O)c2ccccn2)C1 (stereo not given) | 16 |
| COc1c(CNCC(O)c2ccccc2)c(C(C)C)nn1C (stereo not given) | -9.73 |
| COc1c(CNCC(O)c2ccc(C)cc2)c(C(C)C)nn1C (stereo not given) | -3.08 |
| CCn1cc(CN2CCCN(C(=O)c3ccoc3)CC2)cn1 | 9.04 |
| CCn1cc(CN2CCCN(C(=O)c3cccn3C)CC2)cn1 | -7.92 |
| COc1c(C2CCCN2C(=O)c2ccc(O)nc2)c(C)nn1C (stereo not given) | -8.59 |
| COc1c(C2CCCN2C(=O)c2ccc(N(C)C)nn2)c(C)nn1C (stereo not given) | -8.95 |
| O=C(NCC(=O)N1CCCc2ccccc21)c1c(O)cc(F)cc1F | 0.334 |
| CC(C)Cn1[nH]cc/c1=N\C(=O)CN1CCOC(Cn2cccn2)C1 (stereo not given) | 21.5 |
| Cc1ccc(CN2CCCN(Cc3cscn3)CC2)cc1 | 3.58 |
| N#CCc1ccc(OCC(=O)N2CCCC(n3cccn3)C2)cc1 (stereo not given) | -10.5 |
| O=C(c1cccc2c1OCCO2)N1CCCC1Cn1cccn1 (stereo not given) | -8.07 |
| Cc1cc(NC(=O)CN2CCOC(Cn3nc(C)cc3C)C2)n(C)n1 (stereo not given) | -8.28 |
| COc1ccc(CCCC(=O)N2CCCC(n3cccn3)C2)cc1 (stereo not given) | 14.5 |

| Compound | cytotoxicity at 70.5 h [%] |
| --- | --- |
| COc1c(C)cnc(CN(C)C(=O)c2ccccc2F)c1C | -4.79 |
| Cn1cnnc1C1CCCN(C(=O)CCc2ccc3c(c2)OCO3)C1 (stereo not given) | 15.2 |
| COc1ccc(NC(=O)N2CCCCCC2c2ccncc2)cn1 (stereo not given) | -6.87 |
| COc1ccc(NC(=O)N2CCCC2c2ccncc2)cn1 (stereo not given) | -11.6 |
| N#Cc1cccc(CN2CCN(Cc3cscn3)CC2)c1 | -10 |
| Cc1noc2ncc(C(=O)N3CCCC(n4cccn4)C3)cc12 (stereo not given) | -2.98 |
| N#Cc1ccc(OCC(=O)N2CCCC(n3cccn3)C2)cc1 (stereo not given) | -4.85 |
| Cc1nnc(NC(=O)CN2CCOC(Cn3cccn3)C2)s1 (stereo not given) | -6.17 |
| O=C(c1cccc2c1OCCO2)N1CCCCC1Cn1cccn1 (stereo not given) | -6.1 |
| Cc1cnn(CC2CCCCN2C(=O)c2cccc3c2OCO3)c1 (stereo not given) | -8.6 |
| CC(C)c1nc2n(n1)CC(NCc1nc(-c3ccccn3)no1)CC2 (stereo not given) | -7.49 |
| CC(C)c1nc2n(n1)CC(NCc1nc(-c3ccsc3)no1)CC2 (stereo not given) | -11.5 |
| Cc1cc(C(=O)N2CCCC(n3nc(C)cc3C)C2)on1 (stereo not given) | -10.1 |
| Cc1cc(C)n(C2CCCN(C(=O)c3c(C)noc3C)C2)n1 (stereo not given) | -7.4 |
| Cc1n[nH]c(C2CN(Cc3nnc(C4CC4)n3C)CCO2)n1 (stereo not given) | -6.69 |
| CCc1nc(CN2CCCN(CC(=O)Nc3cccnc3)CC2)no1 | 8.11 |
| Cc1cc(CN(C)C2CCCN(Cc3noc(C)n3)C2)on1 (stereo not given) | 17.4 |
| COC1CCN(Cc2csc(C(C)C)n2)CC1 | -5.9 |
| CC(C)c1nc(CN2CCN(Cc3ccccn3)CC2)cs1 | -3.18 |
| Cc1csc(CNC(=O)Cc2ccc3c(c2)OCCO3)n1 | -5.71 |
| CCOc1ccc(CC(CNC(=O)c2ccc(C)s2)C(N)=O)cc1 (stereo not given) | 4.65 |
| CCc1nnc2n1CCN(CC(=O)Nc1cc(C)on1)C2 | 0.374 |

| Compound | cytotoxicity at 70.5 h [%] |
| --- | --- |
| Cc1nc2ccccc2nc1CN1CCCC(Cn2cncn2)C1 (stereo not given) | -3.51 |
| Cc1ccc(C(=O)Nc2cc(F)ccc2OCC2CCCO2)cn1 (stereo not given) | -3.09 |
| Cc1nc2ccccc2nc1CN1CCCCC1Cn1cccn1 (stereo not given) | -12.7 |
| O=C(Cc1ccc2c(c1)OCCO2)N1CCCC(n2cccn2)C1 (stereo not given) | -19.6 |
| CC(C)c1nc(CC(=O)Nc2nc(CN3CCCCCC3)cs2)cs1 | 16.6 |
| CCc1nc(C2CCCN2Cc2nccn2Cc2ccccc2)no1 (stereo not given) | -10.3 |
| CC1CN(CC2CCCCC2)CCN1c1ccc2nncn2n1 (stereo not given) | 41.2 |
| Cc1cc(CN(C)C(=O)c2ccc(F)cc2Br)no1 | -9.11 |
| CC(C)(C)c1cn2nc(N3CCCC3Cn3cncn3)sc2n1 (stereo not given) | -10.8 |
| Cc1[nH]ncc1C(=O)N1CCN(CC(O)C(C)(C)C)CC1 (stereo not given) | -14.9 |
| Cn1nc2c(cc1=O)CN(Cc1nnc(-c3ccco3)o1)CC2 | -3.38 |
| Cn1nc2c(cc1=O)CN(Cc1nnc(C3CC3)o1)CC2 | 19.5 |
| COc1cccc(-c2nc(CNCCn3cccn3)cs2)c1 | -7.96 |
| CC(c1nc(C2CC2)no1)N1CCN(Cc2ccsc2)CC1 (stereo not given) | -12.3 |
| COc1ccc(CN2CCN(C(C)c3nc(C4CC4)no3)CC2)cc1 (stereo not given) | -6.65 |
| CC1CCCCN1C(=O)CN1CCN(c2ccc3nncn3n2)CC1 (stereo not given) | -11.2 |
| O=C(CCSc1ccc(F)cc1)NS(=O)(=O)c1ccc2c(c1)OCCO2 | -6.96 |
| Cc1ccc(CNC2CCCc3c2cnn3Cc2ccccc2)s1 (stereo not given) | -8.41 |
| Cn1ncc2c1CCCC2NCc1ccc(Br)s1 (stereo not given) | 3.28 |
